Laboratory results as given in PubChem BioAssay AID248 (DTP/NCI, 2004).
Several values for one entry are separate records, joined by “and”; a condition that tells them apart may be missing. Equal entries are not always repeated. Inconclusive results and toxic doses are left out. Cut-off read from the data, not from the text of the source: active = T/C of 150% or more; inactive = T/C below 125%.

Test system: L1210 leukemia ip in BDF1 mice, survival T/C
Test: NCI In Vivo Anticancer Drug Screen. Data for tumor model L1210 Leukemia (intraperitoneal) in B6D2F1 (BDF1) mice
Conditions: endpoint: mean survival time, higher = longer survival
How it was run: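 Tumor was transplanted into mice, which were then dosed with test compound or vehicle alone. Survival was recorded for each group, and the treated figure was expressed relative to the control figure.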

[1] = dose: 100.0 mg/kg/injection, schedule: Q01DX001 (ip), vehicle: saline with Tween-80
[2] = dose: 200.0 mg/kg/injection, schedule: Q01DX001 (ip), vehicle: saline with Tween-80
[3] = dose: 50.0 mg/kg/injection, schedule: Q01DX009 (ip), vehicle: Klucel (hydroxypropylcellulose) (HPC)
[4] = dose: 50.0 mg/kg/injection, schedule: Q04DX003 (ip), vehicle: Klucel (hydroxypropylcellulose) (HPC)
[5] = dose: 100.0 mg/kg/injection, schedule: Q01DX009 (ip), vehicle: Klucel (hydroxypropylcellulose) (HPC)
[6] = dose: 100.0 mg/kg/injection, schedule: Q04DX003 (ip), vehicle: Klucel (hydroxypropylcellulose) (HPC)
[7] = dose: 200.0 mg/kg/injection, schedule: Q04DX003 (ip), vehicle: Klucel (hydroxypropylcellulose) (HPC)
[8] = dose: 400.0 mg/kg/injection, schedule: Q04DX003 (ip), vehicle: Klucel (hydroxypropylcellulose) (HPC)
[9] = dose: 200.0 mg/kg/injection, schedule: Q01DX009 (ip), vehicle: Klucel (hydroxypropylcellulose) (HPC)
[10] = dose: 100.0 mg/kg/injection, schedule: Q01DX001 (ip), vehicle: Klucel (hydroxypropylcellulose) (HPC)
[11] = dose: 200.0 mg/kg/injection, schedule: Q01DX001 (ip), vehicle: Klucel (hydroxypropylcellulose) (HPC)

Measured: T/C

COc1ccc(Cl)cc1NC(=O)C(Cl)(Cl)Cl
inactive: dose: 50.0 mg/kg/injection, schedule: Q01DX001 (ip), vehicle: saline with Tween-80 102 % of control | [1] 88 % of control and 92 % of control | dose: 100.0 mg/kg/injection, schedule: Q01DX009 (ip), vehicle: saline with Tween-80 94 % of control | dose: 100.0 mg/kg/injection, schedule: Q04DX002 (ip), vehicle: saline with Tween-80 100 % of control and 101 % of control | [2] 91 % of control | dose: 200.0 mg/kg/injection, schedule: Q01DX009 (ip), vehicle: saline with Tween-80 95 % of control and 89 % of control | dose: 200.0 mg/kg/injection, schedule: Q04DX002 (ip), vehicle: saline with Tween-80 93 % of control and 98 % of control | dose: 400.0 mg/kg/injection, schedule: Q01DX001 (ip), vehicle: saline with Tween-80 89 % of control | dose: 400.0 mg/kg/injection, schedule: Q04DX002 (ip), vehicle: saline with Tween-80 93 % of control and 94 % of control

O=C/C(Br)=C\c1ccccc1
inactive: dose: 25.0 mg/kg/injection, schedule: Q01DX009 (ip), vehicle: Klucel (hydroxypropylcellulose) (HPC) 95 % of control | dose: 25.0 mg/kg/injection, schedule: Q04DX003 (ip), vehicle: Klucel (hydroxypropylcellulose) (HPC) 100 % of control | [3] 90 % of control | [4] 100 % of control | [5] 105 % of control | [6] 93 % of control and 105 % of control

Nc1c2c(nc3ccccc13)CCCC2
inactive: dose: 0.78 mg/kg/injection, schedule: Q04DX003 (ip), vehicle: saline 101 % of control | dose: 1.56 mg/kg/injection, schedule: Q01DX009 (ip), vehicle: saline 98 % of control | dose: 1.56 mg/kg/injection, schedule: Q04DX003 (ip), vehicle: saline 93 % of control | dose: 3.12 mg/kg/injection, schedule: Q01DX009 (ip), vehicle: saline 93 % of control | dose: 3.12 mg/kg/injection, schedule: Q04DX003 (ip), vehicle: saline 104 % of control | dose: 6.25 mg/kg/injection, schedule: Q04DX003 (ip), vehicle: saline 96 % of control | dose: 12.5 mg/kg/injection, schedule: Q04DX003 (ip), vehicle: saline 95 % of control

CC(C)(C)C1CCC(OC=O)CC1 (stereo not drawn)
inactive: [6] 92 % of control | [7] 93 % of control

CSc1nnnc2ccccc12
inactive: dose: 37.5 mg/kg/injection, schedule: Q04DX002 (ip), vehicle: saline with Tween-80 113 % of control | dose: 75.0 mg/kg/injection, schedule: Q04DX002 (ip), vehicle: saline with Tween-80 92 % of control

CCN(CC)Cc1ccccc1COC(=O)c1ccc(OC)cc1
inactive: dose: 100.0 mg/kg/injection, schedule: Q04DX002 (ip), vehicle: saline 103 % of control | dose: 200.0 mg/kg/injection, schedule: Q04DX002 (ip), vehicle: saline 103 % of control

COc1cc(O)c(C(=O)O)c(OC)c1
inactive: dose: 100.0 mg/kg/injection, schedule: Q01DX009 (ip), vehicle: other 103 % of control | dose: 100.0 mg/kg/injection, schedule: Q04DX003 (ip), vehicle: saline 104 % of control | dose: 200.0 mg/kg/injection, schedule: Q01DX009 (ip), vehicle: other 103 % of control | dose: 200.0 mg/kg/injection, schedule: Q04DX003 (ip), vehicle: saline 102 % of control | dose: 400.0 mg/kg/injection, schedule: Q01DX009 (ip), vehicle: other 101 % of control | dose: 400.0 mg/kg/injection, schedule: Q04DX003 (ip), vehicle: saline 98 % of control

CC[Si](CC)(CC)C(C)Cl (stereo not drawn)
inactive: [6] 101 % of control | [7] 101 % of control | [8] 98 % of control

O=S(=O)(Nc1cccc(C(F)(F)F)c1)c1ccccc1
inactive: [5] 106 % of control | [6] 98 % of control | [9] 107 % of control | [7] 97 % of control | dose: 400.0 mg/kg/injection, schedule: Q01DX009 (ip), vehicle: Klucel (hydroxypropylcellulose) (HPC) 101 % of control | [8] 95 % of control

CC1=CC(C)=Nc2ccc(Cl)cc2N1
inactive: dose: 100.0 mg/kg/injection, schedule: Q04DX003 (ip), vehicle: acetone 97 % of control | dose: 200.0 mg/kg/injection, schedule: Q04DX003 (ip), vehicle: acetone 101 % of control | dose: 400.0 mg/kg/injection, schedule: Q04DX003 (ip), vehicle: acetone 92 % of control

N/C(=N/N=C/c1ccccn1)N[N+](=O)[O-]
inactive: dose: 12.5 mg/kg/injection, schedule: Q01DX009 (ip), vehicle: saline with Tween-80 105 % of control | dose: 12.5 mg/kg/injection, schedule: Q04DX003 (ip), vehicle: saline with Tween-80 119 % of control | dose: 25.0 mg/kg/injection, schedule: Q01DX009 (ip), vehicle: saline with Tween-80 101 % of control | dose: 25.0 mg/kg/injection, schedule: Q04DX003 (ip), vehicle: saline with Tween-80 105 % of control | dose: 50.0 mg/kg/injection, schedule: Q04DX003 (ip), vehicle: saline with Tween-80 114 % of control

CC(C)(C)NC(=O)C(Cl)Cl
inactive: [1] 88 % of control | [2] 98 % of control

Cc1ccc(N=Cc2ccccc2O)cc1.[Co]
inactive: dose: 100.0 mg/kg/injection, schedule: Q01DX001 (ip), vehicle: other 102 % of control | dose: 200.0 mg/kg/injection, schedule: Q01DX001 (ip), vehicle: other 98 % of control | dose: 400.0 mg/kg/injection, schedule: Q01DX001 (ip), vehicle: other 110 % of control

NC(CSP(=O)(O)O)=NCC12CC3CC(CC(C3)C1)C2
inactive: dose: 10.0 mg/kg/injection, schedule: Q04DX002 (ip), vehicle: Klucel (hydroxypropylcellulose) (HPC) 102 % of control | dose: 20.0 mg/kg/injection, schedule: Q04DX002 (ip), vehicle: Klucel (hydroxypropylcellulose) (HPC) 109 % of control

CC1c2c(c(-c3ccccc3)c3ccccc3c2-c2ccccc2)S1(=O)=O (stereo not drawn)
inactive: dose: 25.0 mg/kg/injection, schedule: Q04DX002 (ip), vehicle: Klucel (hydroxypropylcellulose) (HPC) 99 % of control | dose: 50.0 mg/kg/injection, schedule: Q04DX002 (ip), vehicle: Klucel (hydroxypropylcellulose) (HPC) 96 % of control | dose: 100.0 mg/kg/injection, schedule: Q04DX002 (ip), vehicle: Klucel (hydroxypropylcellulose) (HPC) 94 % of control and 99 % of control and 111 % of control | dose: 200.0 mg/kg/injection, schedule: Q04DX002 (ip), vehicle: Klucel (hydroxypropylcellulose) (HPC) 94 % of control and 99 % of control and 114 % of control | dose: 400.0 mg/kg/injection, schedule: Q04DX002 (ip), vehicle: Klucel (hydroxypropylcellulose) (HPC) 99 % of control and 111 % of control

COc1cccc(C)c1[N+](=O)[O-]
inactive: [6] 94 % of control | [7] 97 % of control | [8] 105 % of control

O=C1CC(c2ccc(Cl)cc2)C(=O)O1 (stereo not drawn)
inactive: dose: 100.0 mg/kg/injection, schedule: Q01DX001 (ip), vehicle: acetone 98 % of control | dose: 100.0 mg/kg/injection, schedule: Q04DX003 (ip), vehicle: alcohol 98 % of control | dose: 200.0 mg/kg/injection, schedule: Q01DX001 (ip), vehicle: acetone 101 % of control | dose: 200.0 mg/kg/injection, schedule: Q04DX003 (ip), vehicle: alcohol 104 % of control | dose: 400.0 mg/kg/injection, schedule: Q01DX001 (ip), vehicle: acetone 94 % of control

CN(C)CCCNc1c2ccccc2nc2cccc([N+](=O)[O-])c12
inactive: dose: 0.2 mg/kg/injection, schedule: Q04DX003 (ip), vehicle: saline 100 % of control | dose: 0.3 mg/kg/injection, schedule: Q04DX003 (ip), vehicle: saline 94 % of control | dose: 0.5 mg/kg/injection, schedule: Q04DX003 (ip), vehicle: saline 108 % of control

O=[N+]([O-])C1(Br)c2ccccc2-c2nc3ccccc3cc21 (stereo not drawn)
inactive: [10] 94 % of control | [11] 97 % of control | dose: 400.0 mg/kg/injection, schedule: Q01DX001 (ip), vehicle: Klucel (hydroxypropylcellulose) (HPC) 94 % of control

O=C(O)C(Cc1cc(I)c(O)c(I)c1)c1ccccc1 (stereo not drawn)
inactive: [3] 98 % of control | [5] 97 % of control | [6] 100 % of control | [9] 101 % of control | [7] 100 % of control

Nc1nc(N)c(-c2ccccc2)c(C(=O)O)n1
inactive: dose: 50.0 mg/kg/injection, schedule: Q01DX001 (ip), vehicle: Klucel (hydroxypropylcellulose) (HPC) 101 % of control | [4] 94 % of control | [10] 95 % of control | [6] 105 % of control | [11] 95 % of control | [7] 105 % of control
